Experimental data reported in ChEMBL document CHEMBL4507268 (2021).

Columns and labels:
[1] = molecular target: T1, Testis-specific serine/threonine-protein kinase 3 (Homo sapiens) (UniProt Q96PN8); conditions: Compound concentration 1000.0 nM
T1 sequence (whole entry): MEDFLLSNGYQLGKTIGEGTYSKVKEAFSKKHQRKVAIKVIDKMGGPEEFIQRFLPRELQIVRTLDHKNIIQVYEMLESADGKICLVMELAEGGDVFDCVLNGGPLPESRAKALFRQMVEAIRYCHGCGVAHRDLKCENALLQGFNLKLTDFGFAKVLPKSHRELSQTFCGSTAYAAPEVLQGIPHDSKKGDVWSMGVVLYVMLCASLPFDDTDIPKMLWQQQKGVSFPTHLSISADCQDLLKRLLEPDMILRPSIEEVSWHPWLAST

[2] = molecular target: T2, Protein kinase C iota type (Homo sapiens) (UniProt P41743); conditions: Compound concentration 1000.0 nM
T2 sequence (whole entry): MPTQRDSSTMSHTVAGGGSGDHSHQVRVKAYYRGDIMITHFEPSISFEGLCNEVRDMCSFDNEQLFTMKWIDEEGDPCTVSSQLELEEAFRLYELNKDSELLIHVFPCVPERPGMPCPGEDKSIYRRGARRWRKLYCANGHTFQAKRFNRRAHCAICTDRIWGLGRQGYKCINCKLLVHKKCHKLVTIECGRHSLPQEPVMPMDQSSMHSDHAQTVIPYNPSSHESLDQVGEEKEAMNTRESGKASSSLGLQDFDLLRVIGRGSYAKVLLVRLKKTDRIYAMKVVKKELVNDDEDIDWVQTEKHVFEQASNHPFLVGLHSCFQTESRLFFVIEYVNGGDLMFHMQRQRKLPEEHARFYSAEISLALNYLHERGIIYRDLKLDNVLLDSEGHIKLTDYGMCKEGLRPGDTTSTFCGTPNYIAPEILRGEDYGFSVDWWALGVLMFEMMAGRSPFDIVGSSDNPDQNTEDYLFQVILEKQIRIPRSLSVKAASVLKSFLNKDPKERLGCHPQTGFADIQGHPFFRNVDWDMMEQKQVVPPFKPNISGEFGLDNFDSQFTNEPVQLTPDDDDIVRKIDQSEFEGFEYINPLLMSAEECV

[3] = molecular target: Maternal embryonic leucine zipper kinase (Homo sapiens) (UniProt Q14680); conditions: Compound concentration 1000.0 nM
Chain of Maternal embryonic leucine zipper kinase (Homo sapiens) (Q14680 whole entry, looked up): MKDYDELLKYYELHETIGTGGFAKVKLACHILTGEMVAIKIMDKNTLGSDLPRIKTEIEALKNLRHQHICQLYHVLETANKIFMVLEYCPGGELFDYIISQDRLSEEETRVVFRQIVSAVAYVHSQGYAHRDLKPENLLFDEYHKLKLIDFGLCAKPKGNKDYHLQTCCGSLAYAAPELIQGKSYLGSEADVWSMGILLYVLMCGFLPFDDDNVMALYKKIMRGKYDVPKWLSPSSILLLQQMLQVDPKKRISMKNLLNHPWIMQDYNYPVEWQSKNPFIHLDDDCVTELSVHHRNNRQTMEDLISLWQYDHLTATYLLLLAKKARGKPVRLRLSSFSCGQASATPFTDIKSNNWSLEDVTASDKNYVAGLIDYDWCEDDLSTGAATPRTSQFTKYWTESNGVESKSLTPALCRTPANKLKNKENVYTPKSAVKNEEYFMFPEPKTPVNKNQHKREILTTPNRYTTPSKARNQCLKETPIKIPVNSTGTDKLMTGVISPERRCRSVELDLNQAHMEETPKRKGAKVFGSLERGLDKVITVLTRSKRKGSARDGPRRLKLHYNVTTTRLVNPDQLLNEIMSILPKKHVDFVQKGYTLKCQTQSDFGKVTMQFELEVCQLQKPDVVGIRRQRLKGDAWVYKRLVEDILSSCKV

[4] = molecular target: T3, Dual specificity tyrosine-phosphorylation-regulated kinase 2 (Homo sapiens) (UniProt Q92630); conditions: Compound concentration 1000.0 nM
T3 sequence (whole entry): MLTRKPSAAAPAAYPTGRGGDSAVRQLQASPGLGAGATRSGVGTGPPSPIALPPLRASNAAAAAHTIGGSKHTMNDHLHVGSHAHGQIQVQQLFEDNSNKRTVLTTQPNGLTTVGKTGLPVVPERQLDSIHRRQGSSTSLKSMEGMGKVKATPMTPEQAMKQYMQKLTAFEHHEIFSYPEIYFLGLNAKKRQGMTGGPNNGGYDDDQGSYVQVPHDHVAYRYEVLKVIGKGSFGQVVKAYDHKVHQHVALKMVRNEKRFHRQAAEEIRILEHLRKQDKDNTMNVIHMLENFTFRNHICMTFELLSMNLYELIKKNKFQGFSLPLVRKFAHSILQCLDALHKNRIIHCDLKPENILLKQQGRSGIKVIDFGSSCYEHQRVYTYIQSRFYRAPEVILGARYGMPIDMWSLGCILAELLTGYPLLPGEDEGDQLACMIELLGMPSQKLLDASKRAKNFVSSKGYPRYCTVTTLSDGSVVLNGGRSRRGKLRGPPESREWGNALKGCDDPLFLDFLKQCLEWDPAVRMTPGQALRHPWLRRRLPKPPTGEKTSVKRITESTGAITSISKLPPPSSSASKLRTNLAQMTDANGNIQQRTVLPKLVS

[5] = tested on: Proto-oncogene tyrosine-protein kinase receptor Ret (Homo sapiens), P07949 [V804L]; conditions: Compound concentration 1000.0 nM
Chain of Proto-oncogene tyrosine-protein kinase receptor Ret (Homo sapiens), P07949 [V804L] (P07949 whole entry V804L): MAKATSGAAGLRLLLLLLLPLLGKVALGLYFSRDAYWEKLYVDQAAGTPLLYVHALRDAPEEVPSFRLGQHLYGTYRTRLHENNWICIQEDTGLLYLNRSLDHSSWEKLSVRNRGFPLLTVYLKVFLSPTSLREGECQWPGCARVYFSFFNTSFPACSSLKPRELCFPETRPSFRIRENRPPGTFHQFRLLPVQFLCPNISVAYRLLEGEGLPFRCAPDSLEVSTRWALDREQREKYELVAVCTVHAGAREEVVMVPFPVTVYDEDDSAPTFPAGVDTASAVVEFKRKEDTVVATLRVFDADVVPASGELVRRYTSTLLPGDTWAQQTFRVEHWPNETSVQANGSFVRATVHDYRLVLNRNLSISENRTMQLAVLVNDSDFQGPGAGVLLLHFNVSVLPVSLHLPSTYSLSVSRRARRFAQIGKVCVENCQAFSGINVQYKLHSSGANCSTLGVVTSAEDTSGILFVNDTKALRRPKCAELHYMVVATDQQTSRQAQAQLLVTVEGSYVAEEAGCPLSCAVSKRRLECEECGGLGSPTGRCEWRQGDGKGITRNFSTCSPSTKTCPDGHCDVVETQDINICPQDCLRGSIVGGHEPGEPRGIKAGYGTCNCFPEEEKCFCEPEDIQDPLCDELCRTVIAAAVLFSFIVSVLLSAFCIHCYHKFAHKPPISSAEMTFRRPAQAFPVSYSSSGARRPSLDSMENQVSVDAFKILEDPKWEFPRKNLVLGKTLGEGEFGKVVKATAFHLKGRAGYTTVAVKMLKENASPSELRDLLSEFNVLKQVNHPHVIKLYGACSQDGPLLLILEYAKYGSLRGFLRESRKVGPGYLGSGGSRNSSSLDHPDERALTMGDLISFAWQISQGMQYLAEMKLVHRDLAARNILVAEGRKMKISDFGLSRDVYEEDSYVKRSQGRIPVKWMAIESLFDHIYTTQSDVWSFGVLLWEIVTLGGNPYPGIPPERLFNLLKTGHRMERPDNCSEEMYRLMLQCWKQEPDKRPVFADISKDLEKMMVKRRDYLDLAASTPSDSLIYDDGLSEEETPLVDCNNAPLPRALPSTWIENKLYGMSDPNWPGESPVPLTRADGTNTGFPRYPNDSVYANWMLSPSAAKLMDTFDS

[6] = molecular target: Cyclin-dependent kinase-like 1 (Homo sapiens) (UniProt Q00532); conditions: Compound concentration 1000.0 nM
Chain of Cyclin-dependent kinase-like 1 (Homo sapiens) (Q00532 whole entry): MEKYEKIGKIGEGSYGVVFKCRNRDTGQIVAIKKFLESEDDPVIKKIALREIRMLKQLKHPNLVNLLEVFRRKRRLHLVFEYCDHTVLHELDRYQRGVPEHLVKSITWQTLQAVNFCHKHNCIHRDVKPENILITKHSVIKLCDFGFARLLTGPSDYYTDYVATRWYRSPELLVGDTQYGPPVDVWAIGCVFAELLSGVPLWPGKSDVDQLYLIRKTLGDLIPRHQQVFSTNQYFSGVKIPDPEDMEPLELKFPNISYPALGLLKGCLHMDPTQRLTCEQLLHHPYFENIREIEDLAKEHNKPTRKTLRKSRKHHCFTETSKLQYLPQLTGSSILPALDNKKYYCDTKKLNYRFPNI

[7] = molecular target: Alpha-2C adrenergic receptor (Homo sapiens) (UniProt P18825); conditions: Compound concentration 10.0 uM
Chain of Alpha-2C adrenergic receptor (Homo sapiens) (P18825 whole entry, canonical isoform): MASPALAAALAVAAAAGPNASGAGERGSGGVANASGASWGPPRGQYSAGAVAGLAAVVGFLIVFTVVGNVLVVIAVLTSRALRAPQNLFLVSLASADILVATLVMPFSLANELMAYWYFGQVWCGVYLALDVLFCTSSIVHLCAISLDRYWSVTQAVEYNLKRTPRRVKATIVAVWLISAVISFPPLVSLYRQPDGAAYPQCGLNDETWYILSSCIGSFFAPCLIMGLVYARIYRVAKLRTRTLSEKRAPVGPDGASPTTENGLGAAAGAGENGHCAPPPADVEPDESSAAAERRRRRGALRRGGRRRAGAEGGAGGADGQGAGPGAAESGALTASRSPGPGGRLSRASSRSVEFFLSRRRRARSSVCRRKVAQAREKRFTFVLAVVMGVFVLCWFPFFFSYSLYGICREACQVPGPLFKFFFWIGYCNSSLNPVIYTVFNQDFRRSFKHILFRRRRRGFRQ

[8] = tested on: Phosphatidylinositol 4,5-bisphosphate 3-kinase catalytic subunit alpha isoform (Homo sapiens), P42336 [E542K]; conditions: Compound concentration 1000.0 nM
Chain of Phosphatidylinositol 4,5-bisphosphate 3-kinase catalytic subunit alpha isoform (Homo sapiens), P42336 [E542K] (P42336 whole entry E542K, canonical isoform): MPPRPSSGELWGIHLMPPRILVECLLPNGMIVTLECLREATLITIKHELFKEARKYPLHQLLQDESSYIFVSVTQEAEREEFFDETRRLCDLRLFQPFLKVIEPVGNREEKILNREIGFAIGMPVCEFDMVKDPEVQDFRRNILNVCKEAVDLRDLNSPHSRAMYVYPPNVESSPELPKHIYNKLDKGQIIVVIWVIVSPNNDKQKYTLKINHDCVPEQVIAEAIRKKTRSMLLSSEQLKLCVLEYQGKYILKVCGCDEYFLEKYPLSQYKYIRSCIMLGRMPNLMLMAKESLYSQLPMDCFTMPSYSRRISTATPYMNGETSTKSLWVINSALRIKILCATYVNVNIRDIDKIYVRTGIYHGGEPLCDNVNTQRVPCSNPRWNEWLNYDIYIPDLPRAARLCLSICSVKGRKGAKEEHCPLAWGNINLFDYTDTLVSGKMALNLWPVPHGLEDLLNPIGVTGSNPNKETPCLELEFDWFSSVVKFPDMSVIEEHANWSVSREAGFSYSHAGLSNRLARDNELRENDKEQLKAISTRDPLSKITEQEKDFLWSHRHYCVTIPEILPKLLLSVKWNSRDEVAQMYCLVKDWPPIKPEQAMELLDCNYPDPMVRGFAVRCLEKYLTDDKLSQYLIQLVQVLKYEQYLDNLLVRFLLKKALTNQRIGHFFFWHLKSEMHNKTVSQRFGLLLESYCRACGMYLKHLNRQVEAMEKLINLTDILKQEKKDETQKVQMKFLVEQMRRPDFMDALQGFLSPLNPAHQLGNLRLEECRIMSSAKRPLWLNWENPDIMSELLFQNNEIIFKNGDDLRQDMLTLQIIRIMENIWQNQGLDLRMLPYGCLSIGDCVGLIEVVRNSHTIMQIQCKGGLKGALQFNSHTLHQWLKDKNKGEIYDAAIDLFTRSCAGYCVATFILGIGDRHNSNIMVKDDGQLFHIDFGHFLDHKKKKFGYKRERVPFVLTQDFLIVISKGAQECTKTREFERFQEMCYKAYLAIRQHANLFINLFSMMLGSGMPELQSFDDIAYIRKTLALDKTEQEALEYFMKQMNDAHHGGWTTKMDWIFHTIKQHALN

[9] = molecular target: T4, Ephrin type-A receptor 8 (Homo sapiens) (UniProt P29322); conditions: Compound concentration 1000.0 nM
T4 sequence (whole entry): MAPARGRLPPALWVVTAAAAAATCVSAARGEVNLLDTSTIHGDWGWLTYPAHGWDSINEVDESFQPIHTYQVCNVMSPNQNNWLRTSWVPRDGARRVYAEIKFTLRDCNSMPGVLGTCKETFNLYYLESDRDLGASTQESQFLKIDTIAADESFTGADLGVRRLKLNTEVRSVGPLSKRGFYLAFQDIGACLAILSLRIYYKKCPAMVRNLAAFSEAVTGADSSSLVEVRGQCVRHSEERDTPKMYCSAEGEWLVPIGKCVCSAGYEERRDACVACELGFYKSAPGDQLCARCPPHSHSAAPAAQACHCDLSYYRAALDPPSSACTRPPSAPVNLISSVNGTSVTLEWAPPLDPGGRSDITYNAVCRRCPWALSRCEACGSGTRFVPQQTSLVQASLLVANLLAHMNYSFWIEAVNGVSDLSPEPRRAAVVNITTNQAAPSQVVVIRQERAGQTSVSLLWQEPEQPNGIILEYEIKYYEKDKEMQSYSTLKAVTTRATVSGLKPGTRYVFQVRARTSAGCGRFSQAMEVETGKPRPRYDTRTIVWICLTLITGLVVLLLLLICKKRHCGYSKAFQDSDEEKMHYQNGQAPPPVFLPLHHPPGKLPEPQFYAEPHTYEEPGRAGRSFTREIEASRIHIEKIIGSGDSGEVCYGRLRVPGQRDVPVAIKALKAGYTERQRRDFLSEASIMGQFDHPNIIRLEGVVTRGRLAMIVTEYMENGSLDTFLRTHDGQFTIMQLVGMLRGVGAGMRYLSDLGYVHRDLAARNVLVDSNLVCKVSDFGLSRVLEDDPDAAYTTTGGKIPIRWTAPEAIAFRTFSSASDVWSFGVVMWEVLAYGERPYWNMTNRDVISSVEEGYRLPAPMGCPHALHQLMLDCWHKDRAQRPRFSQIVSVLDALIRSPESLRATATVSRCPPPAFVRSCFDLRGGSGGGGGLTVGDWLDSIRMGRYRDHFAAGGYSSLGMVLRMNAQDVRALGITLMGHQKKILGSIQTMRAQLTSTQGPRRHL

[10] = tested on: Phosphatidylinositol 4,5-bisphosphate 3-kinase catalytic subunit alpha isoform (Homo sapiens), P42336 [C420R]; conditions: Compound concentration 1000.0 nM
Chain of Phosphatidylinositol 4,5-bisphosphate 3-kinase catalytic subunit alpha isoform (Homo sapiens), P42336 [C420R] (P42336 whole entry C420R, canonical isoform): as the sequence (P42336 whole entry E542K, canonical isoform) above, with C420R, K542E counted along it

[11] = molecular target: Alpha-1B adrenergic receptor (Homo sapiens) (UniProt P35368); conditions: Compound concentration 10.0 uM
Chain of Alpha-1B adrenergic receptor (Homo sapiens) (P35368 whole entry): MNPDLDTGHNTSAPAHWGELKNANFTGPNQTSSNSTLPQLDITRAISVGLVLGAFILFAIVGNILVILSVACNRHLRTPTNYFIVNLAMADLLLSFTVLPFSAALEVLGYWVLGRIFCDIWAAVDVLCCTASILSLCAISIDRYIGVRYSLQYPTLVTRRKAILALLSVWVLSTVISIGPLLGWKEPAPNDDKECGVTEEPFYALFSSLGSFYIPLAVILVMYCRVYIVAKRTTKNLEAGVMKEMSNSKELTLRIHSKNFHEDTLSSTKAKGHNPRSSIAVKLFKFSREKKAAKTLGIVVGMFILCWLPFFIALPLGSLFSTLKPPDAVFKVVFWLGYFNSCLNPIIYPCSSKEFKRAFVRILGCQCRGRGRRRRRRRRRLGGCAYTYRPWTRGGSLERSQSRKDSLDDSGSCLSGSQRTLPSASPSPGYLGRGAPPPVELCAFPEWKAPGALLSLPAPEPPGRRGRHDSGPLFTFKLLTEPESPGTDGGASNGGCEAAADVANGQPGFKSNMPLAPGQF

CN1CCN(c2cnc3c(C4CCN(C(=O)c5ccc(OC(F)(F)F)cc5N)CC4)ncnc3c2)CC1 [BAY-885]
inactive: residual activity [1] 68% | residual activity [2] 77% | residual activity [3] 85% | residual activity [4] 100% | residual activity [5] 97% | residual activity [6] 94% | inhibition [7] -2.34% | residual activity [8] 100% | residual activity [9] 100% | residual activity [10] 94% | inhibition [11] 16.4%

Cc1nc(C2CCN(C(=O)c3ccc(OC(F)(F)F)cc3N)CC2)c2ncc(N3CCN(C)CC3)cc2n1 [BAY-693]
inactive: residual activity [1] 100% | residual activity [2] 81% | residual activity [3] 93% | residual activity [4] 100% | residual activity [5] 73% | residual activity [6] 89% | inhibition [7] -6.01% | residual activity [8] 92% | residual activity [9] 98% | residual activity [10] 86% | inhibition [11] 20.2%
